pIC50: −log10 of the molar value. Where two headings read alike, the source gives them in different places. Square brackets hold non-standard residues; d marks the D form. Peptide text beside a SMILES is read from it.
Experiments:
BT474R tumor xenografts = assay: Trastuzumab-resistant BT474R tumor xenograft model; type: in vivo, BALB/c nu/nu mice; settings: 7.5 mg/kg GO-203 intravenously each day for 21 days
Protocol: FIGS. 5A-G. Targeting MUC1-C in trastuzumab-resistant cells suppresses HER3 activation and inhibits growth and clonogenic survival. (FIG. 5A) Lysates from the indicated SKBR3R (left) and BT474R (right) cells were immunoblotted (IB) with anti-p-HER3 and anti-HER3. (FIG. 5B) The indicated SKBR3R (left) and BT474R (right) cells were seeded at 4000 and 1000 cells per well, respectively, and incubated for 12 days. The colony number is expressed as the mean±s.e. of three replicates. (FIG. 5C) SKBR3R cells were treated with […] GO-203 for the indicated times. Lysates were immunoblotted with the indicated antibodies. (FIG. 5D) SKBR3R cells were left untreated (Control; CTL) or treated with […] GO-203 for the indicated times. Cell number (mean±s.e. of three determinations) was determined by Trypan blue staining. (FIG. 5E) BT474R cells were treated with […] GO-203 for the indicated times. Lysates were immunoblotted with the indicated antibodies. (FIG. 5F) BT474R cells were left untreated (Control; CTL) or treated with […] GO-203 for the indicated times. Cell number (mean±s.e. of three determinations) was determined by Trypan blue staining. […] The results are expressed as tumor volume (mean±s.e. for the eight mice in each group).
Trastuzumab-resistant BT474R tumor xenograft model. […] Tumor volumes were calculated as described (Raina et al., 2011).

SKBR3 cells = type: cell-based, human
Protocol: (§1) Cell culture. SKBR3 and BT474 cells were obtained from ATCC (Rockville, Md.). SKBR3 and BT474 were maintained in McCoy's 5a modified medium and Dulbecco's modified Eagle medium/Ham F12 (1:1) supplemented with 10% heat-inactivated FBS, 100 units/ml penicillin, […] streptomycin, and 2 mM L-glutamine. […] Cells were treated with GO-203 and CP-2 peptides (AnaSpec). […] Viability was determined by trypan blue exclusion.
(§2) Determination of IC50 and synergism. Cells were seeded on 96-well plates in 100 μl of growth medium at a density of 3000 cells per well. After 24 h, the cells were exposed to drugs in treatment medium for an additional 72 h. Cell viability was assessed using the alamar blue viability assay (Invitrogen). Triplicate wells of each treatment were analyzed and each experiment was done three times. The IC50 values were determined by nonlinear regression of the dose-response data using Prism 5.0 for Mac OSX (GraphPad Software). […] Cell viability was determined after treatment for 72 h. The combination index (CI) was calculated to determine the presence of synergism (CI<1) or antagonism (CI>1) using CalcuSyn software (Biosoft).

BT474 cells = type: cell-based, human; settings: 72 h
Protocol: as §1, §2

SKBR3R cells = assay: cells; type: cell-based; settings: Homo sapiens, 72 h
Protocol: as §1, §2
(§3) Assessment of drug interaction by Bliss independence. […] Using this equation, if the experimentally measured inhibition is greater than Ei, then the combination is synergistic.38 Plots were generated by Prism GraphPad software.

BT474R cells = assay: cells; type: cell-based, human; settings: for IC50: Homo sapiens, 72 h
Protocol: as §1, §2, §3

Row | SMILES | weight loss (BT474R tumor xenografts) | pIC50 (SKBR3 cells) | pIC50 (BT474 cells) | IC50 (SKBR3R cells; read-out: Lapatinib (μM) IC50, SKBR3R cells, 72 h, lapatinib alone (Table 3)) [µM] | IC50 (SKBR3R cells; read-out: Lapatinib (μM) IC50, SKBR3R cells, 72 h, lapatinib alone (Table 4)) [µM] | IC50 (SKBR3R cells; read-out: Lapatinib (μM) IC50 with GO-203, SKBR3R cells, 72 h, with 4 μM GO-203) [µM] | IC50 (SKBR3R cells; read-out: Lapatinib (μM) IC50 with Trastuzumab and GO-203, SKBR3R cells, 72 h, with 40 nM trastuzumab+4 μM GO-203) [µM] | IC50 (SKBR3R cells; read-out: Lapatinib (μM) IC50 with Trastuzumab, SKBR3R cells, 72 h, with 40 nM trastuzumab) [µM] | Fold change (BT474R cells; BT474R cells, lapatinib IC50 alone vs with GO-203) | IC50 (BT474R cells; read-out: Lapatinib (μM) IC50, BT474R cells, 72 h, lapatinib alone (Table 3)) [µM] | IC50 (BT474R cells; read-out: Lapatinib (μM) IC50, BT474R cells, 72 h, lapatinib alone (Table 4)) [µM] | IC50 (BT474R cells; read-out: Lapatinib (μM) IC50 with GO-203, BT474R cells, 72 h, with 4 μM GO-203) [µM] | IC50 (BT474R cells; read-out: Lapatinib (μM) IC50 with Trastuzumab and GO-203, BT474R cells, 72 h, with 40 nM trastuzumab+4 μM GO-203) [µM] | IC50 (BT474R cells; read-out: Lapatinib (μM) IC50 with Trastuzumab, BT474R cells, 72 h, with 40 nM trastuzumab) [µM]
1 | N=C(N)NCCC[C@@H](N)C(=O)N[C@H](CCCNC(=N)N)C(=O)N[C@H](CCCNC(=N)N)C(=O)N[C@H](CCCNC(=N)N)C(=O)N[C@H](CCCNC(=N)N)C(=O)N[C@H](CCCNC(=N)N)C(=O)N[C@H](CCCNC(=N)N)C(=O)N[C@H](CCCNC(=N)N)C(=O)N[C@H](CCCNC(=N)N)C(=O)N[C@H](CS)C(=O)N[C@H](CCC(N)=O)C(=O)N[C@H](CS)C(=O)N[C@H](CCCNC(=N)N)C(=O)N[C@H](CCCNC(=N)N)C(=O)N[C@H](CCCCN)C(=O)N[C@H](CC(N)=O)C(=O)O [GO-203] (H-[dR][dR][dR][dR][dR][dR][dR][dR][dR][dC][dQ][dC][dR][dR][dK][dN]-OH) | no weight loss | 5.23 | 4.99 | – | – | – | – | – | – | – | – | – | – | –
2 | CS(=O)(=O)CCNCc1ccc(-c2ccc3ncnc(Nc4ccc(OCc5cccc(F)c5)c(Cl)c4)c3c2)o1 [Lapatinib] | – | – | – | 1.36 | 1.7 | 0.94 | 0.93 | 1.5 | 2.13 | 1.43 | 1.5 | 0.67 | 0.22 | 1.2

— patent US9789156B2, “Combination anti-human epidermal growth factor receptor 2 (anti-HER2) cancer therapy using mucin 1 (MUC1) peptides and hemotherapeutics” (DANA-FARBER CANCER INSTITUTE, INC., priority 2013, dated 2017)
